Data reported in publication PMC5515969, “Effects of 31 FDA approved small-molecule kinase inhibitors on isolated rat liver mitochondria” (Archives of Toxicology, 2016).
Like-named read-outs stand apart in the source and are kept apart here.

Tests used:
[1] = system: isolated rat liver mitochondria; experiment: Mitochondrial oxygen consumption (glutamate/malate or succinate driven, state 4 and state 3); format: biochemical; as to State 3 respiration driven by succinate at 10XCmax: key: 0 indicates that the drug had no effects (negative); as to State 3 respiration driven by succinate at 1XCmax: key: 0 indicates that the drug had no effects (negative)
Procedure, shortened: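 Oxygen uptake on glutamate/malate or on succinate defined state 4; ADP added 3 min later gave state 3. Mitochondria isolated from rat liver by differential centrifugation, adjusted to 1 mg/ml and pretreated 5 min with inhibitor (0.1% DMSO final). Values relative to DMSO control, set to 1.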

[2] = system: RCC I; experiment: RCC I activity in submitochondrial particles; format: biochemical, rat; parameters: key to RCC I at 10XCmax / RCC I at 100XCmax / RCC I at 50XCmax / RCC I at 30XCmax / RCC I at 20XCmax: activity relative to DMSO-treated controls (control set as 1 = 100%); details: for RCC activity I: 15 min
Procedure, shortened: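 First, submitochondrial particles (1 mg/ml) are incubated with inhibitor for 15 min. Next, complex activities are followed spectrophotometrically, with RCC I taken as the difference between buffers lacking and containing rotenone. Finally, activities are expressed relative to DMSO controls set at 1.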

[3] = biological target: T1, RCC II (Rattus norvegicus, UniProt P21913+Q641Z9+Q6PCT8+Q920L2); experiment: RCC II activity in submitochondrial particles; format: biochemical; parameters: key: activity relative to DMSO-treated controls (control set as 1 = 100%); details: DMSO treated samples set as 1
T1 construct: Submitochondrial particles were prepared by subjecting the intact mitochondria to three successive freeze–thaw cycles; from tissue; host or cells: rat liver mitochondria, used as submitochondrial particles
Procedure, shortened: (§1)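 Abs 340 nm (I/V) or 600 nm (II), 1-min reads × 6 min; 550 nm (III, IV), 10-s reads × 2 min. RCC I = rotenone-free minus rotenone rate. DMSO control = 1.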

[4] = system: RCC III; experiment: RCC III activity in submitochondrial particles; format: biochemical, rat; details: 15 min, DMSO-treated = 100
Procedure, shortened: as §1

[5] = system: RCC IV; experiment: RCC IV activity in submitochondrial particles; format: biochemical, rat; details: 15 min, DMSO-treated = 100
Procedure, shortened: as §1

[6] = system: RCC V; experiment: RCC V activity in submitochondrial particles; format: biochemical, rat; details: for RCC activity V: 15 min, DMSO-treated = 100; as to RCC V at 5XCmax: key: 0 indicates that the drug had no effects (negative)
Procedure, shortened: as §1

[7] = system: isolated rat liver mitochondria; experiment: Mitochondrial inner membrane potential (MMP), Rhodamine 123; format: biochemical
From the text: Fig. 3 KI effects on mitochondrial inner membrane potential (MMP). […] In a, c, data are means and standard derivations from three separate experiments. *p < 0.05 as compared to DMSO-treated samples at the end of experiments. In b, data are means of two independent experiments

[8] = system: isolated rat liver mitochondria; experiment: Mitochondrial swelling (absorbance at 535 nm); format: biochemical; as to Swelling 5XCmax: key: 0 indicates that the drug had no effects (negative)
[9] = Solubility of DMSO stock for 100X/50X Cmax testing; format: physicochemical; details: solubility in DMSO
From the text: Supplement 204_2016_1918_MOESM3_ESM.xlsx, sheet "Sheet1" | column: 100 Cmax; 50 Cmax; note

[10] = system: isolated rat liver mitochondria; details: positive control alamethicin treated samples
[11] = cited from earlier work
[12] = system: isolated rat liver mitochondria; experiment: Mitochondrial ROS production (CM-H2DCFDA); details: DMSO treated samples set as 1
[13] = system: RCC I–V; experiment: Activities of RCC I–V, overall statements; format: biochemical, rat; details: submitochondrial particles, up to 100-fold Cmax or highest testable concentration
Description: KIs were incubated with submitochondrial particles (1 mg/ml) for 15 min and then RCC I–V activities measured. […] The activities of DMSO-treated samples (controls) were set as 1. […] The difference between the activity from rotenone-containing buffer and rotenone-absent buffer was considered as RCC I activity. […] For measuring RCC I/V and II activity, the changes in absorbance at 340 and 600 nm, respectively, were determined every 1 min for 6 min. For measuring RCC III and RCC IV, the changes in absorbance at 550 nm were measured every 10 s for 2 min.

[14] = system: isolated rat liver mitochondria; experiment: Mitochondrial toxicity, any endpoint, intact mitochondria and submitochondrial particles; format: biochemical; details: any endpoint
Description: Rats were anesthetized by an intraperitoneal injection of Nembutal and the liver perfused with PBS to remove the blood. The liver was then cut into small pieces and homogenized using a Dounce type homogenizer in the ice-cold isolation buffer (IB) containing 200 mM sucrose, 10 mM Tris-MOPS, 1 mM EGTA (pH 7.4). The sample was then centrifuged at 600g for 10 min. The supernatant was further centrifuged at 7500g for 10 min, and the pellets was washed once with the IB and centrifuged again at 7500g for 10 min to collect mitochondria. […] Before drug treatment, the protein concentration was adjusted to 1 mg/ml using appropriate buffer. […] Briefly, mitochondrial and cytosolic fractions from four different preparations using four rats were diluted using the Laemmli protein loading buffer and subject to SDS-PAGE with 4–20% gradient gels. The proteins were blotted to PVDF membranes and detected using antibodies against GAPDH, ATP5A, UQCRC2, SDHB, and NDUFB8.
The aliquoted stock solutions were kept for less than one month and each tube was used only once. The KIs were added to the mitochondria at 1:1000 dilutions. […] The Cmax data were from clinical trials which used FDA recommend dosages, route of administration, and duration. […] The final concentration of DMSO for drug treatment was always 0.1%, and control treatments were 0.1% DMSO.

[15] = ref FDA product labeling; cited from earlier work
[16] = 1XCmax, DMSO treated samples set as 1
[17] = 2.5XCmax, DMSO treated samples set as 1
[18] = 5XCmax, DMSO treated samples set as 1
[19] = 10XCmax, DMSO treated samples set as 1
[20] = 20XCmax, DMSO treated samples set as 1
[21] = 1XCmax, difference in signal between KI and DMSO treated samples at the end of experiments
[22] = 2.5XCmax, difference in signal between KI and DMSO treated samples at the end of experiments
[23] = 5XCmax, difference in signal between KI and DMSO treated samples at the end of experiments
[24] = 10XCmax, difference in signal between KI and DMSO treated samples at the end of experiments
[25] = 20XCmax, difference in signal between KI and DMSO treated samples at the end of experiments
[26] = human therapeutic Cmax at FDA recommended dosages, ref product labeling and drug approval packages at the official FDA website
[27] = 10-fold Cmax, oxygen consumption, DMSO-treated = 1
[28] = 20-fold Cmax, oxygen consumption, DMSO-treated = 1
[29] = 30-fold Cmax, oxygen consumption, DMSO-treated = 1

T1 sequence (Q920L2 35-656): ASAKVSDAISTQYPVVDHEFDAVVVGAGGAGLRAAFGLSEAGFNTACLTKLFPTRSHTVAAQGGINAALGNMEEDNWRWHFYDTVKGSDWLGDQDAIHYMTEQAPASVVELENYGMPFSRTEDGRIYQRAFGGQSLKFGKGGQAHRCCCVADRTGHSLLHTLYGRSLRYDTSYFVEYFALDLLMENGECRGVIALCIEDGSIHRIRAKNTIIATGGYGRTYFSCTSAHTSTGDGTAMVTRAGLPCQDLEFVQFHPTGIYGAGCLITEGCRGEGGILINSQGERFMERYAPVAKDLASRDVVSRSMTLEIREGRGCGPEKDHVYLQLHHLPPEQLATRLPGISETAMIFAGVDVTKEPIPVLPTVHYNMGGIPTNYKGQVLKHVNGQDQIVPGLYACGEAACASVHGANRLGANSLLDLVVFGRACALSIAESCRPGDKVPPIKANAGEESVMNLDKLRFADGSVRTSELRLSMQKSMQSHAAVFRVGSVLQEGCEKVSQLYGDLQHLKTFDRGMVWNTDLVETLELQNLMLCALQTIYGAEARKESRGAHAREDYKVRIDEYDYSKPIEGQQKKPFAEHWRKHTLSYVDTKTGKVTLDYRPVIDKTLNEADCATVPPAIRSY
T1 sequence (P21913 31-282): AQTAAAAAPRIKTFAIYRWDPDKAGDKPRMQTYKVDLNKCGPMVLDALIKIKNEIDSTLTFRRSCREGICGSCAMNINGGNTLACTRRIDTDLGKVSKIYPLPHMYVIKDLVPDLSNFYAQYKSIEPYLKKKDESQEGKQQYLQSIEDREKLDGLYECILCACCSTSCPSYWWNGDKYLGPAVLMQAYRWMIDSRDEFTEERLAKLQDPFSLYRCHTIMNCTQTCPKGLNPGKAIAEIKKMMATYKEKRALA
T1 sequence (Q641Z9 1-169): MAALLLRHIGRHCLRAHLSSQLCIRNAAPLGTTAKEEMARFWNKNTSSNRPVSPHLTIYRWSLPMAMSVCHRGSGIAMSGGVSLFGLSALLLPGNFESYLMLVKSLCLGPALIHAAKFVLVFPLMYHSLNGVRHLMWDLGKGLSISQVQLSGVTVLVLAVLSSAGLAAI
T1 sequence (Q6PCT8 57-159): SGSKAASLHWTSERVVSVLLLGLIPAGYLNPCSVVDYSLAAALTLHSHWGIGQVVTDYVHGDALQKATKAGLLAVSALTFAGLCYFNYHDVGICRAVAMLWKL

CCc1cc2c(cc1N1CCC(N3CCOCC3)CC1)C(C)(C)c1[nH]c3cc(C#N)ccc3c1C2=O [Alectinib]
State 3 respiration driven by succinate at 1XCmax [1, 16]: 0
State 4 respiration driven by succinate at 1XCmax [1, 16]: 0
State 3 respiration driven by succinate at 2.5XCmax [1, 17]: 0
State 4 respiration driven by succinate at 2.5XCmax [1, 17]: 0
State 3 respiration driven by succinate at 5XCmax [1, 18]: 0
State 4 respiration driven by succinate at 5XCmax [1, 18]: 0
State 3 respiration driven by succinate at 10XCmax [1, 19]: 0
State 4 respiration driven by succinate at 10XCmax [1, 19]: 0
State 3 respiration driven by succinate at 20XCmax [1, 20]: 0
State 4 respiration driven by succinate at 20XCmax [1, 20]: 0
RCC I at 10XCmax [2, 19]: 0
RCC activity I ([2]; 20-fold Cmax, DMSO-treated = 100): 89.39 ± 2.98 % of control
RCC I at 20XCmax ([2]; 20XCmax, DMSO-treated = 100): 89.39±2.98
RCC II at 1.0XCmax ([3]; 1.0XCmax): 0
RCC II at 2.5XCmax ([3]; 2.5XCmax): 0
RCC II at 5XCmax ([3]; 5XCmax): 0
RCC II at 10XCmax ([3]; 10XCmax): 0
RCC II at 20XCmax ([3]; 20XCmax): 0
RCC activity III ([4]; 20-fold Cmax): 116.05 ± 4.72 % of control
RCC activity IV ([5]; 20-fold Cmax): 101.46 ± 1.66 % of control
RCC V at 5XCmax [6, 18]: 0
RCC activity V ([6]; 20-fold Cmax): 106.30 ± 11.74 % of control
MMP measured by Rhodamine 123 at 1XCmax [7, 21]: 0
MMP measured by Rhodamine 123 at 2.5XCmax [7, 22]: 0
MMP measured by Rhodamine 123 at 5XCmax [7, 23]: 0
MMP measured by Rhodamine 123 at 10XCmax [7, 24]: 0
MMP measured by Rhodamine 123 at 20XCmax [7, 25]: 0
Swelling 1XCmax [8, 21]: 0
Swelling 2.5XCmax [8, 22]: 0
Swelling 5XCmax [8, 23]: 0
Swelling 10XCmax [8, 24]: 0
Swelling 20XCmax [8, 25]: 0
DMSO stock for 50 Cmax ([9]; stock for 50 Cmax): not soluble
DMSO stock for 100 Cmax ([9]; stock for 100 Cmax): not soluble
Cytochrome c release 1XCmax ([10]; 1XCmax): 0
Cytochrome c release 2.5XCmax ([10]; 2.5XCmax): 0
Cytochrome c release 5XCmax ([10]; 5XCmax): 0
Cytochrome c release 10XCmax ([10]; 10XCmax): 0
Cytochrome c release 20XCmax ([10]; 20XCmax): 0
Cmax [11, 26]: 1.37 µM
Cmax (ng or µg/ml) ([11]; human therapeutic maximal blood concentration, ref product labeling): 0.665 µg/mL
Cmax ([11]; read-out: Cmax at µM, human therapeutic maximal blood concentration, ref product labeling): 1.37 µM
ROS measured by CM-H2DCFDA at 1XCmax ([12]; 1XCmax): 0
ROS measured by CM-H2DCFDA at 2.5XCmax ([12]; 2.5XCmax): 0
ROS measured by CM-H2DCFDA at 5XCmax ([12]; 5XCmax): 0
ROS measured by CM-H2DCFDA at 10XCmax ([12]; 10XCmax): 0
ROS measured by CM-H2DCFDA at 20XCmax ([12]; 20XCmax): 0

COc1cc2nccc(Oc3ccc(NC(=O)C4(C(=O)Nc5ccc(F)cc5)CC4)cc3)c2cc1OC [Cabozantinib]
Glutamate/malate driven respiration State 4 [1, 27]: 1.46 ± 0.08
Succinate-driven respiration State 3 [1, 27]: 1.03 ± 0.01
Succinate-driven respiration State 4 [1, 27]: 1.23 ± 0.11
Glutamate/malate driven respiration State 3 [1, 28]: 0.92 ± 0.05
Glutamate/malate driven respiration State 4 [1, 28]: 1.30 ± 0.15
Succinate-driven respiration State 3 [1, 28]: 0.94 ± 0.06
Succinate-driven respiration State 4 [1, 28]: 1.24 ± 0.05
Glutamate/malate driven respiration State 4 [1, 29]: 1.55 ± 0.06
Succinate-driven respiration State 3 [1, 29]: 0.95 ± 0.05
Succinate-driven respiration State 4 [1, 29]: 1.35 ± 0.18
effect on state 4 respiration ([1]; highest tested concentrations): significant increases
lowest concentration significantly affecting mitochondrial oxygen consumption ([1]; tested at 1 to 100-fold Cmax): tenfold
RCC activity I ([2]; 30-fold Cmax, DMSO-treated = 100): 80.97 ± 2.99 % of control
RCC activity III ([4]; 30-fold Cmax): 90.73 ± 14.60 % of control
RCC activity IV ([5]; 30-fold Cmax): 113.10 ± 9.48 % of control
RCC activity V ([6]; 30-fold Cmax): 91.99 ± 8.51 % of control
lowest concentration decreasing MMP [7]: tenfold
effect on MMP ([7]; up to 100-fold Cmax or highest testable concentration): decrease in MMP
lowest concentration causing mitochondrial swelling [8]: 20 fold Cmax
effect on mitochondrial swelling ([8]; up to 100-fold Cmax or highest testable concentration, 25 µM calcium chloride): significant mitochondrial swelling
RCCs inhibited [13]: both RCC I and RCC II
lowest concentration causing significant mitochondrial toxicity [14]: 10 fold Cmax
Cmax [11, 26]: 2.58 µM
DILI potential (based on labeling) [15]: 0
